Assay results reported in ChEMBL document CHEMBL1201862, “PubChem BioAssay data set” (2004).
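Exposure lasted 48 hours, with cells grown in 96-well plates and compounds tested at five concentrations. GI50 = concentration required for 50% inhibition of growth.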 Activity calls are given as the source filed them. Rule as the data show it: active = GI50 up to about 1.1 µM and inactive = higher.

What was measured:
Test in all cases: NCI-60 cell line screen, 48 h
OVCAR-4 = system: OVCAR-4
SK-OV-3 = system: SK-OV-3
SR = system: SR
MCF7 = system: MCF7
EKVX = system: EKVX
U-251 = system: U-251
SNB-19 = system: SNB-19
SN12C = system: SN12C
RPMI-8226 = system: RPMI-8226
NCI-H522 = system: NCI-H522
SF-268 = system: SF-268
HL-60 = system: HL-60
MDA-MB-435 = system: MDA-MB-435
A498 = system: A498
MDA-N = system: MDA-N
KM12 = system: KM12
PC-3 = system: PC-3
UACC-62 = system: UACC-62
HOP-92 = system: HOP-92
RXF 393 = system: RXF 393

Measured: GI50

COc1cc2c(c(O)c1OC)C(=O)[C@@H]1CCC(=O)N1C2c1ccccc1 (some centres not stated)
inactive: OVCAR-4 > 100 µM | SK-OV-3 > 100 µM | SR 46.6 µM | MCF7 > 100 µM | EKVX 51.9 µM | U-251 63.1 µM | SNB-19 > 100 µM | SN12C > 100 µM | RPMI-8226 45.7 µM | NCI-H522 28.5 µM | SF-268 > 100 µM | HL-60 45.5 µM | MDA-MB-435 90.6 µM | A498 > 100 µM | MDA-N > 100 µM | KM12 67.5 µM | PC-3 31.8 µM | UACC-62 44.5 µM

N[C@@H](CCC(=O)NC(Cc1ccccc1)C(=O)NCP(=O)(O)O)C(=O)O (some centres not stated)
inactive: SR > 100 µM | MCF7 > 100 µM | EKVX > 100 µM | U-251 > 100 µM | SNB-19 > 100 µM | SN12C > 100 µM | RPMI-8226 > 100 µM | NCI-H522 > 100 µM | HL-60 > 100 µM | MDA-MB-435 > 100 µM | A498 > 100 µM | MDA-N > 100 µM | KM12 > 100 µM | PC-3 > 100 µM | UACC-62 > 100 µM

Cc1nn(C(=O)c2ccc(Cl)cc2)c2c1C(/C=C/c1ccccc1)SC(=N)N2 (configuration not stated)
inactive: OVCAR-4 > 10 µM | SK-OV-3 > 10 µM | SR > 10 µM | MCF7 > 10 µM | EKVX > 10 µM | HOP-92 > 10 µM | U-251 > 10 µM | SNB-19 > 10 µM | SN12C > 10 µM | RPMI-8226 > 10 µM | NCI-H522 > 10 µM | SF-268 > 10 µM | HL-60 > 10 µM | MDA-MB-435 > 10 µM | MDA-N > 10 µM | KM12 > 10 µM | PC-3 > 10 µM | RXF 393 > 10 µM | UACC-62 > 10 µM

c1ccc(-n2nc3ccc4nonc4c3n2)cc1
inactive: OVCAR-4 > 100 µM | SK-OV-3 > 100 µM | SR > 100 µM | MCF7 > 100 µM | EKVX 44.6 µM | HOP-92 > 100 µM | U-251 > 100 µM | SNB-19 45.9 µM | SN12C > 100 µM | RPMI-8226 > 100 µM | SF-268 > 100 µM | HL-60 > 100 µM | MDA-MB-435 > 100 µM | MDA-N > 100 µM | KM12 > 100 µM | PC-3 > 100 µM | RXF 393 > 100 µM | UACC-62 > 100 µM

CCOC(=O)c1c(-c2ccccc2)[nH]c2ccc(Cl)cc2c1=O
inactive: OVCAR-4 20.5 µM | SK-OV-3 45.1 µM | SR 33.3 µM | MCF7 31.8 µM | EKVX 54.6 µM | HOP-92 22 µM | U-251 41.6 µM | SNB-19 > 100 µM | SN12C 51.4 µM | RPMI-8226 36.9 µM | NCI-H522 28 µM | SF-268 50.1 µM | HL-60 28.2 µM | MDA-MB-435 34.8 µM | MDA-N 37.7 µM | KM12 34.8 µM | PC-3 41.1 µM | RXF 393 35 µM | UACC-62 37.7 µM

C1CCNCC1.CN(C)c1ccc(/C=C2/NC(=S)NC2=O)cc1
inactive: OVCAR-4 > 100 µM | SK-OV-3 69.3 µM | SR 29.6 µM | MCF7 62.4 µM | EKVX 50.4 µM | HOP-92 61.8 µM | U-251 73.3 µM | SNB-19 86.7 µM | SN12C > 100 µM | RPMI-8226 24.5 µM | NCI-H522 65.2 µM | SF-268 82 µM | HL-60 19.7 µM | MDA-MB-435 27.2 µM | MDA-N 36.3 µM | PC-3 56.4 µM | RXF 393 37.6 µM | UACC-62 36.8 µM
